Entries after “also recorded” stand apart in the source; their conditions may differ. Like-named read-outs stand apart in the source and are kept apart here.
Key:
TGase I = experiment: Transglutaminase (TGase I) ELISA in cultured keratinocytes, normalized to DNA content (keratinocyte differentiation); format: cell-based, human; conditions: for Mean TGase/DNA X 10^-4 ± S.D.: n = 3; for mean TGase/DNA × 10^4 ± s.d: Table 3B
Method: Human keratinocytes, isolated from neonatal foreskin by trypsin treatment were grown in Dulbecco Modification Eagle (DME) Hams F12 (1:1) medium/10% fetal calf serum in the presence of irradiated 3T3 mouse fibroblasts for establishing dividing keratinocyte colonies. Cells were grown under the above condition until their second passage and kept frozen for future use. Frozen second passage keratinocytes were thawed and plated into the above medium and grown for five days before they were switched to a serum-free MCDB 153-based medium keratinocyte growth medium (KGM) from Clonetics Corporation, San Diego, Calif., containing 0.15 mM Ca, or keratinocyte serum-free media (KSFM) from GIBCO containing 0.09 mM Ca). On day 7, when the cells were 80-90% confluent, they were trypsinized and plated in the serum-free medium for the various experiments.
During the process of terminal differentiation in the epidermis, a 15 nm thick layer of protein, known as the cornified envelope (CE) is formed on the inner surface of the cell periphery. The CE is composed of numerous distinct proteins which have been cross-linked together by the formation of N^ε -(γ-glutamyl) lysine isodipeptide bonds catalyzed by the action of at least two different transglutaminases (TGases) expressed in the epidermis. TGase I is expressed in abundance in the differentiated layers of the epidermis, especially the granular layer, but is absent in the undifferentiated basal epidermis. Thus TGase I is a useful marker of epidermal keratinocyte differentiation with high TGase I levels indicating a more differentiated state. An ELISA based TGase I assay, using a TGase I antibody, was used to assess the state of differentiation of the cultured keratinocytes in the examples that follow.
Keratinocytes (cultured as described above) were plated in 96 well plates at a density of 3,000 cells per well in 200 μl media. After incubation for four days the media was changed to media containing test compounds (six replicates per test). The cells were cultured for a further 72 hours after which time the media was aspirated and the plates stored at -70° C. Plates were removed from the freezer, and the cells washed with PBS. 100 μl sterile water was added and the cells were freeze fractured by freezing at -70° C. then thawing. The cells were incubated for one hour at room temperature (R/T) with PBS/3% BSA (wash buffer, bovine serum albumin), then rinsed with a fresh aliquot of wash buffer. Cells were incubated with 50 μl of primary antibodies monoclonal anti-human transglutaminase (IgG) obtained from Amersham (mouse) diluted 1:300 in wash buffer for one hour, 37° C. then rinsed two times with wash buffer. Cells were then incubated with 50 μl of secondary antibody (Feb fragment, peroxidase conjugated anti-mouse IgG obtained from Amersham) diluted 1:200 in wash buffer for one hour at 37° C., then rinsed two times with wash buffer. Cells were incubated with substrate solution (4 mg o-phenylene diamine and 3.3 μl 30% H2 O2 in 10 ml 0.1M citrate buffer pH 5.0) for five minutes, R/T, in darkness (under aluminum foil). The reaction was stopped by the addition of 50 μl 4N H2 SO4. The absorbance of samples was read at 492 nm in the plate reader. Out of the six replicates, four were treated with both antibodies, two were treated only with the secondary antibody (i.e., to determine background binding of enzyme conjugated Ab). TGase levels were determined by subtracting background from the readings from each treatment and determining mean ±s.d. for the replicates exposed to both Ab.
The level of TGase-1 detected after treatment of the cells could be influenced by cell number, i.e., the greater the number of cells the greater the level of TGase-1 detected. The level of TGase-1 was normalized to DNA content of the cells in the same well thus eliminating variation due to differences in cell number. […]

Human keratinocytes = experiment: 3H-thymidine incorporation by cultured keratinocytes (keratinocyte proliferation); format: cell-based; conditions: for activation at 0.0025 µM: 2.5×10^-9 M RA
Method: Human keratinocytes, isolated from neonatal foreskin by trypsin treatment were grown in Dulbecco Modification Eagle (DME) Hams F12 (1:1) medium/10% fetal calf serum in the presence of irradiated 3T3 mouse fibroblasts for establishing dividing keratinocyte colonies. Cells were grown under the above condition until their second passage and kept frozen for future use. […] On day 7, when the cells were 80-90% confluent, they were trypsinized and plated in the serum-free medium for the various experiments.
The incorporation of ^3 H-thymidine by cultured keratinocytes was used as an assay of keratinocyte proliferation. Thymidine is one of four deoxynucleosides which are the monomeric units of DNA, the universal library of genetic information in the animal kingdom. Prior to cell division of a somatic cell such as a keratinocyte, the complete genome of the cell undergoing cell division is replicated. This involves large scale DNA synthesis by the cell and enables both daughter cells to receive identical copies of the genetic material. When ^3 H-thymidine is included in the culture media of keratinocytes which are synthesizing DNA in preparation for cell division then the labelled nucleoside is incorporated into the newly synthesized DNA. The extent of incorporation of ^3 H-thymidine into a population of cells is proportional to the rate of DNA synthesis by this population of cells and therefore an indication of their cellular proliferation.
Keratinocytes (that were cultured as described above) were plated in 24 well plates at a density of 40,000 cells per well in 1 ml media. After incubation for four days or until the cells were 60-70% confluent, the media was changed. Test compounds were added (in triplicate) to the wells 24 hours after the media change, and four hours later 1 μCi ^3 H-Thymidine in 50 μl media was added per well. Cells were incubated for a further 24 hours. Media was removed from the cells, 10% ice cold trichloroacetic acid (TCA) added and plates were incubated on ice for 30 minutes. Cells were washed five times with 5% TCA and allowed to dissolve in 500 μl 0.1M NaOH for at least one hour (usually overnight). The preparations were neutralized with 0.1M HCl; 50 μl of the cell preparation was used to determine total protein content. Disintegrations per minute (DPM) from ^3 H labelling of DNA was determined by liquid scintillation counting of 900 μl of the cell preparation. Thymidine incorporation results were expressed as DPM/μg protein.

[1] = Examples 1-4, overall conclusion

SMILES: CC1=C(/C=C/C(C)=C/C=C/C(C)=C/C(=O)O)C(C)(C)CCC1 [RA, retinoic acid]
- effect on transglutaminase level / keratinocyte differentiation (in words) (TGase I; Example 1, 2.5×10^-7 M, 2.5×10^-8 M and 2.5×10^-9 M): decreased keratinocyte differentiation over both the ethanol control and each of the retinol treatments; also recorded: dose dependent
- effect on keratinocyte TG1 level / differentiation (in words) (TGase I; Example 2, 2.5×10^-8 M RA or retinol, 10^-8 M LAMEA, 10^-8 M bifonazole, 72 hour): very effective at repressing keratinocyte TG1 levels
- effect on keratinocyte TG1 level / differentiation (in words) (TGase I; Example 3, 2.5×10^-7 M RA, 2.5×10^-9 M retinol with 10^-8 M LADEA and/or climbazole, 72 hour): very effective at repressing keratinocyte TG1 levels
- effect on keratinocyte differentiation (in words) (TGase I; [1]): decreased keratinocyte differentiation
- TGase/DNA (% Control) (TGase I; Table 1B, 2.5 × 10^-7 M, 72 hours, 0.25 µM): 7%
- Mean TGase/DNA X 10^-4 ± S.D. (TGase I; Table 1B, 2.5 × 10^-7 M, 72 hours): 0.16 ± 0.11 X 10^-4
- TGase/DNA (% Control) (TGase I; Table 1B, 2.5 × 10^-8 M, 72 hours, 0.025 µM): 55%
- Mean TGase/DNA X 10^-4 ± S.D. (TGase I; Table 1B, 2.5 × 10^-8 M, 72 hours): 1.34 ± 0.40 X 10^-4
- TGase/DNA (% Control) (TGase I; Table 1B, 2.5 × 10^-9 M, 72 hours, 0.0025 µM): 77%
- Mean TGase/DNA X 10^-4 ± S.D. (TGase I; Table 1B, 2.5 × 10^-9 M, 72 hours): 1.87 ± 0.49 X 10^-4
- TGase/DNA (% Control) (TGase I; Table 2B and Example 2B text, 2.5×10^-8 M RA or retinol, 10^-8 M LAMEA, 10^-8 M bifonazole where named, 72 hour): 13%
- mean TGase/DNA × 10^-4 ± s.d (TGase I; Table 2B, 2.5 × 10^8 M [sic] RA or ROH, 10^8 M LA-MEA, 10^8 M Bifonazole where named, 72 hour, n = 6): 0.017 ± 0.010 × 10^-4
- TGase/DNA (% Control) (TGase I; Table 3B and Example 3B, 2.5×10^-9 M RA or ROH, with 10^-8 M LADEA and/or 10^-8 M climbazole where named, 72 hour): 55%
- TGase/DNA (% Control) (TGase I; Table 3B and Example 3B, RA at 2.5×10^-7 M (table: 2.5 × 10^7 M), 72 hour, 0.25 µM): 29%
- mean TGase/DNA × 10^4 ± s.d (TGase I; 2.5 × 10^9 M [sic] RA or ROH, with 10^8 M LA-DEA and/or 10^8 M Climbazole where named, 72 hour, n = 6): 0.84 ± 0.59 × 10^4
- mean TGase/DNA × 10^4 ± s.d (TGase I; RA at 2.5 × 10^7 M [sic], 72 hour, n = 6): 0.44 ± 0.71 × 10^4
- effect on keratinocyte proliferation (in words) (Human keratinocytes; Example 1, 2.5×10^-7 M, 2.5×10^-8 and 2.5×10^-9 M, vs ethanol control and retinol): significantly increased keratinocyte proliferation over both the ethanol control and each of the 2.5×10^-7 M, 2.5×10^-8 M and 2.5×10^-9 M retinol treatments; also recorded: dose dependant manner
- effect on keratinocyte proliferation (in words) (Human keratinocytes; [1]): increased keratinocyte proliferation
- activity at 0.25 µM (Human keratinocytes; Homo sapiens, Keratinocyte, 24 h, Table 1A, 2.5 × 10^-7 M, 24 hours, read-out: Thymidine incorporation (% control)): 118%
- activity at 0.025 µM (Human keratinocytes; Homo sapiens, Keratinocyte, 24 h, Table 1A, 2.5 × 10^-8 M, 24 hours, read-out: Thymidine incorporation (% control)): 128%
- activity at 0.0025 µM (Human keratinocytes; Homo sapiens, Keratinocyte, 24 h, Table 1A, 2.5 × 10^-9 M, 24 hours, read-out: Thymidine incorporation (% control)): 122%
- activity at 0.0025 µM (Human keratinocytes; Homo sapiens, Keratinocyte, 24 h, Table 2A, 2.5 × 10^-9 M RA or ROH, with 10^-8 M LADEA and/or 10^-9 M Bifonazole where named, 24 hours, read-out: Thymidine incorporation (% control)): 127%
- activity at 0.25 µM (Human keratinocytes; Homo sapiens, Keratinocyte, 24 h, Table 3A, RA at 2.5 × 10^7 M [sic], read-out: Thymidine incorporation (% control)): 130%
- activation at 0.0025 µM (Human keratinocytes; Homo sapiens, Keratinocyte, read-out: increase in keratinocyte thymidine incorporation / proliferation over the ethanol control, Example 2, or 2.5×10^-9 M retinol+10^-8 M linoleamide-DEA+10^-9 M bifonazole): 27%
- activation at 0.25 µM (Human keratinocytes; Homo sapiens, Keratinocyte, read-out: increase in keratinocyte thymidine incorporation / proliferation over the ethanol control, Example 3, 2.5×10^-7 M RA, or 2.5×10^-8 M retinol+10^-8 M linoleamide-DEA+10^-9 M climbazole): 30%
- activation at 0.0025 µM (Human keratinocytes; Homo sapiens, Keratinocyte, read-out: increase in keratinocyte thymidine incorporation / proliferation over the ethanol control, Example 4, or 2.5×10^-9 M retinol+10^-8 M linoleamide-MEA+10^-8 M clotrimazole): 28%
- mean Thymidine incorp./μg protein ± s.d (Human keratinocytes; Table 1A, 2.5 × 10^-7 M, 24 hours, n = 3): 2475 ± 116 DPM/μg protein
- mean Thymidine incorp./μg protein ± s.d (Human keratinocytes; Table 1A, 2.5 × 10^-8 M, 24 hours, n = 3): 2686 ± 72 DPM/μg protein
- mean Thymidine incorp./μg protein ± s.d (Human keratinocytes; Table 1A, 2.5 × 10^-9 M, 24 hours, n = 3): 2556 ± 80 DPM/μg protein
- mean Thymidine incorp. μg protein ± s.d (Human keratinocytes; Table 2A, 2.5 × 10^-9 M RA or ROH, with 10^-8 M LADEA and/or 10^-9 M Bifonazole where named, 24 hours, n = 3): 5569 ± 248 DPM/μg protein
- mean Thymidine incorp/μg protein ± s.d (Human keratinocytes; Table 3A, RA at 2.5 × 10^7 M [sic], n = 3): 4845 ± 95 DPM/μg protein

From patent publication US5716627A, “Skin care compositions containing fatty acid amides, azoles, and retinol or retinyl ester” (Elizabeth Arden Co., Division of Conopco, Inc., priority 1996, dated 1998)
